Where two headings read alike, the source gives them in different places.
Columns and labels:
TfIMPDH = TfIMPDH (Tritrichomonas foetus, UniProt P50097); test: biochemical; assay type: biochemical
CpIMPDH = CpIMPDH (Cryptosporidium parvum, UniProt Q8T6T2); test: biochemical; assay type: biochemical
CjIMPDH [1] = molecular target: T1, CjIMPDH (Campylobacter jejuni, UniProt Q0P9J4); test: biochemical; assay type: biochemical
BaIMPDH [2] = molecular target: T2, BaIMPDH (Bacillus anthracis, UniProt A0A6L8P2U9); test: biochemical; assay type: biochemical
human IMPDH2 = human IMPDH2 (Homo sapiens, UniProt P12268); test: IMPDH steady-state kinetics and inhibition; assay type: biochemical
BaIMPDH [3] = molecular target: T2, BaIMPDH; assay type: biochemical
BaIMPDH [4] = molecular target: T2, BaIMPDH; assay type: binding; conditions: read-out: calculated value of Ki
BaIMPDH [5] = molecular target: T2, BaIMPDH; assay type: biochemical; remark: listed apart in the source
CjIMPDH [6] = molecular target: T1, CjIMPDH; test: Product determination and stoichiometry of inhibition; assay type: biochemical
[7] = molecular target: partially purified rat IMPDH; conditions: mixed inhibition; cited from earlier work
[8] = molecular target: CjIMPDHΔS (IMPDH from C. jejuni, CBS domain V92-T195 deleted and replaced with G) (Campylobacter jejuni) (UniProt Q0P9J4); test: crystal structure
[9] = read-out: Km, NAD, varying NAD+, saturating IMP, 25 °C, pH 8
[10] = uncompetitive substrate inhibition by NAD+
[11] = read-out: Kis, OxMP, versus IMP, competitive, NAD+ 500 μM

T2 sequence (A0A6L8P2U9 1-487): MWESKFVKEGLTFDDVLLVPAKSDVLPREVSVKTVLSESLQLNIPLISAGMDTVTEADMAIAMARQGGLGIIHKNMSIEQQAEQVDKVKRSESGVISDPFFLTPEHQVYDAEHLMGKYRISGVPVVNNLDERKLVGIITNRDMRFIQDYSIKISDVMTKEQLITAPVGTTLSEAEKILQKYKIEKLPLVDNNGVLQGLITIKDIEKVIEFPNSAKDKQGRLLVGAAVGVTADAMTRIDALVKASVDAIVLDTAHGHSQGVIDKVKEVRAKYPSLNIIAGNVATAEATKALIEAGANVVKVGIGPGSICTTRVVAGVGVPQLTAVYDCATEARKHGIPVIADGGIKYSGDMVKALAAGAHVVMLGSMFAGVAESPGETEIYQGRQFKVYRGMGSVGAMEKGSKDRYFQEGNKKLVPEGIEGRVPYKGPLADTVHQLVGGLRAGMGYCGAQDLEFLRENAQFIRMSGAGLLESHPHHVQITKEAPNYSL
Chain of TfIMPDH (P50097 whole entry): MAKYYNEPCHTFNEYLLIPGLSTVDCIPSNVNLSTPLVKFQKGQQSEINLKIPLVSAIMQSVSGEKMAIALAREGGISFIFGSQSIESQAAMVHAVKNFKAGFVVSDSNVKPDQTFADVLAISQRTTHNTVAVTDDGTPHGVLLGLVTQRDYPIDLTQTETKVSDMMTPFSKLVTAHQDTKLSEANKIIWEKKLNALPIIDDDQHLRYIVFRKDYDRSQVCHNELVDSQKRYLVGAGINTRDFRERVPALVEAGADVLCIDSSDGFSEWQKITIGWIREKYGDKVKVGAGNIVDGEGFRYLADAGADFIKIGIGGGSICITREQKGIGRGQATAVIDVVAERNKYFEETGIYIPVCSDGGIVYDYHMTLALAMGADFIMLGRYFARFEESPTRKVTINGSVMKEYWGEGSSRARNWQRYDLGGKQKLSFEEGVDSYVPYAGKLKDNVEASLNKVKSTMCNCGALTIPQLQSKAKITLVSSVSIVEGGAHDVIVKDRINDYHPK
Chain of CpIMPDH (Q8T6T2 whole entry): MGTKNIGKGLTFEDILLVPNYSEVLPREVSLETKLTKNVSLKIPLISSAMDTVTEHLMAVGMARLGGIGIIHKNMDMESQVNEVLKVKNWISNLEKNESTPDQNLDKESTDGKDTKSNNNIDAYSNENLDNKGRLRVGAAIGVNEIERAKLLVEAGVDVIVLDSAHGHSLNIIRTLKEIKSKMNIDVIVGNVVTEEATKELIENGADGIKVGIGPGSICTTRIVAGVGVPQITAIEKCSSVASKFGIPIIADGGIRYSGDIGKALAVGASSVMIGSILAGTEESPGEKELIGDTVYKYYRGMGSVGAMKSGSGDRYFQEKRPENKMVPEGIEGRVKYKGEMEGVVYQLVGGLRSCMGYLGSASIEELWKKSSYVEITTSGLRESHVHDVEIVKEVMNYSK

Compound: Nc1nc2c(ncn2[C@@H]2O[C@H](COP(=O)(O)O)[C@@H](O)[C@H]2O)c(=O)[nH]1 [GMP, guanosine 5’-monophosphate, reference compound]
- Ki (TfIMPDH): 24000 ± 2000 nM
- Ki (CpIMPDH): 21000 ± 1000 nM
- Ki (CjIMPDH [1]): 8000 ± 900 nM
- Ki (BaIMPDH [2]): 115000 ± 7000 nM

Compound: NC(=O)c1ccc[n+]([C@@H]2O[C@H](COP(=O)([O-])OP(=O)(O)OC[C@H]3O[C@@H](n4cnc5c(N)ncnc54)[C@H](O)[C@@H]3O)[C@@H](O)[C@H]2O)c1 [NAD]
- Km (human IMPDH2; [9]): 7 ± 1.7 µM
- Kii, NAD (human IMPDH2; [10]): 0.49 ± 0.12 mM
- Km (TfIMPDH; [9]): 80 ± 3 µM
- Kii, NAD (TfIMPDH; [10]): 5.4 ± 0.3 mM
- Km (CpIMPDH; [9]): 45 ± 3 µM
- Kii, NAD (CpIMPDH; [10]): 6.5 ± 0.5 mM
- Km (CjIMPDH [1]; [9]): 66 ± 5 µM
- Kii, NAD (CjIMPDH [1]; [10]): 4.1 ± 0.3 mM
- Kii, NAD (BaIMPDH [2]): 8.1 ± 0.5 mM
- Km (BaIMPDH [2]; read-out: Km, NAD, pH 8): 700 ± 40 µM

Compound: Nc1nc2c(ncn2[C@@H]2O[C@H](COP(=O)(O)O)[C@@H](O)[C@H]2O)c(=O)o1 [OxMP, oxanosine monophosphate]
- Kis, GMP /Kis, OxMP (human IMPDH2; ratio of Kis values): 280
- Ki (human IMPDH2; [11]): 130 ± 20 nM
- Kis, GMP /Kis, OxMP (TfIMPDH; ratio of Kis values): 140
- Ki (TfIMPDH; [11]): 170 ± 20 nM
- Kis, GMP /Kis, OxMP (CpIMPDH; ratio of Kis values): 240
- Ki (CpIMPDH; [11]): 90 ± 10 nM
- Kis, GMP /Kis, OxMP (CjIMPDH [1]; ratio of Kis values): 160
- Ki (CjIMPDH [1]; [11]): 51 ± 6 nM
- Kis, GMP /Kis, OxMP (BaIMPDH [2]): 340
- Ki (BaIMPDH [2]; read-out: Kis, OxMP): 340 ± 50 nM
- dissociation rate constant koff (BaIMPDH [3]): 0.0019 s⁻¹
- Ki (BaIMPDH [4]): 330 nM
- hydrolysis of OxMP to UrMP by the enzyme (BaIMPDH [5]): no free UrMP was detected
- stoichiometry of inhibition (BaIMPDH [5]): 1 OxMP/active site
- hydrolysis of OxMP to UrMP by the enzyme (CjIMPDH [6]; enzyme and OxMP in a 1:1 ratio for 4 h, LC-MS): no free UrMP was detected
- stoichiometry of inhibition (CjIMPDH [6]; incubated 5 min, initial rates): 1 OxMP/active site
- Ki [7]: 1000 to 5000 nM

Compound: CjIMPDHΔS (IMPDH from C. jejuni, CBS domain V92-T195 deleted and replaced with G) (from UniProt Q0P9J4) (enzyme)
- stoichiometry N [8]: 4

From PMC6467267 (Chemical research in toxicology, 2019)
